In patent US11000033B2, “Ketone or oxime compound, and herbicide” (NISSAN CHEMICAL CORPORATION, priority 2014, dated 2021):

How the values were obtained:
Type in all cases: in vivo
[1] = system: Stellaria media; test: Test Example 4: herbicidal effect by soil treatment (symbol P); settings: application herbicide amount 320 g/ha
Outline: (§1)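 Seeds were sown in sterilized diluvial soil, covered with about 1.5 cm of soil, and the soil surface was sprayed with a water-diluted emulsion of the compound at a predetermined rate. Plants grew in a greenhouse at 25° C. to 30° C.; effects were scored visually 3 weeks after application.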

[2] = system: transplanted rice plant; test: Test Example 1: effect on crop, application before weed generation in submerged conditions (symbol a); settings: application herbicide amount 320 g/ha
Outline: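 Rice at 2.5 leaf stage transplanted into submerged soil (4 cm depth) sown with three weed species; herbicide applied before weed emergence.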

[3] = system: Scirpus juncoides; test: Test Example 2: herbicidal activity, application during weed generation in submerged conditions (symbol B); settings: Table 23; application herbicide amount 320 g/ha; grade 0-5 by criteria of Test Example 1
Outline: (§2)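 Seeds sown in flooded alluvial soil (4 cm water) were grown in a 25-30° C greenhouse. At the one- to two-leaf stage, diluted emulsion of compound was applied to the water surface at a predetermined rate. Effect was scored 3 weeks later.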

[4] = system: soybean; test: Test Example 4: effect on crop by soil treatment (symbol d); settings: application herbicide amount 320 g/ha
Outline: (§3)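 Sterilized diluvial soil, spot sowing, ~1.5 cm soil cover; greenhouse 25–30° C.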

[5] = system: Echinochloa crus-galli var. crus-galli; test: Test Example 3: herbicidal effect by foliage application, Wagner pot (symbol H); settings: application herbicide amount 320 g/ha
Outline: (§4)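 Plants sown in submerged alluvial soil (water depth 0.1–0.5 cm) in a 25–30 °C greenhouse and grown 14 days. An emulsion of the compound diluted in water to a set herbicide amount was sprayed uniformly on foliage. Effect on each plant scored 3 weeks after application.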

[6] = system: Monochoria vaginalis; test: Test Example 1: herbicidal activity, application before weed generation in submerged conditions (symbol C); settings: application herbicide amount 320 g/ha
Outline: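 Mixed weed seeds sown in alluvial soil under 4 cm of water, with rice seedlings at the 2.5-leaf stage added. Same-day treatment: emulsion diluted to a set herbicide amount onto the water. Three weeks at 25–30 °C, then graded on a six-step scale.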

[7] = system: Abutilon theophrasti; test: Test Example 4: herbicidal effect by soil treatment (symbol M); settings: application herbicide amount 320 g/ha
Outline: as §1

[8] = system: wheat; test: Test Example 4: effect on crop by soil treatment (symbol e); settings: application herbicide amount 320 g/ha
Outline: as §3

[9] = system: Echinochloa oryzacola Vasing.; test: Test Example 2: herbicidal activity, application during weed generation in submerged conditions (symbol A); settings: Table 23; application herbicide amount 320 g/ha; grade 0-5 by criteria of Test Example 1
Outline: as §2

[10] = system: Leptochloa chinensis; test: Test Example 3: herbicidal effect by foliage application, Wagner pot (symbol D); settings: application herbicide amount 320 g/ha
Outline: as §4

[11] = system: corn; test: Test Example 5: effect on crop by foliage application, plastic box (symbol c); settings: 320 g/ha, 3 weeks after application
Outline: (§5)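 Crop and weed seeds sown in spots in sterilized diluvial soil in plastic boxes and covered with about 1.5 cm soil. Plants raised in a greenhouse at 25° C. to 30° C. for foliar application.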

[12] = system: soybean; test: Test Example 5: effect on crop by foliage application, plastic box (symbol d); settings: 320 g/ha, 3 weeks after application
Outline: as §5

[13] = system: rice plant; test: Test Example 5: effect on crop by foliage application, plastic box (symbol b); settings: 320 g/ha, 3 weeks after application
Outline: as §5

[14] = system: corn; test: Test Example 4: effect on crop by soil treatment (symbol c); settings: application herbicide amount 320 g/ha
Outline: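 Plants are raised in a greenhouse (25° C. to 30° C.) from spot-sown seed, which sits under about 1.5 cm of sterilized diluvial soil in a box shared with weed species.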

[15] = system: beet; test: Test Example 5: effect on crop by foliage application, plastic box (symbol f); settings: 320 g/ha, 3 weeks after application
Outline: as §5

Row | SMILES | Herbicidal effect grade, P: Stellaria media [1] | Effect grade on crop, a: transplanted rice plant [2] | Herbicidal effect grade, B: Scirpus juncoides [3] | Effect on crop grade, d: soybean [4] | herbicidal effect on H (Echinochloa crus-galli var. crus-galli), grade 0-5 [5] | Herbicidal effect grade, C: Monochoria vaginalis [6] | Herbicidal effect grade, M: Abutilon theophrasti [7] | Effect on crop grade, e: wheat [8] | Herbicidal effect grade, A: Echinochloa oryzacola Vasing. [9] | herbicidal effect on D (Leptochloa chinensis), grade 0-5 [10] | c: corn, effect on crop (criteria of Test Example 1) [11] | d: soybean, effect on crop (criteria of Test Example 1) [12] | b: directly sowed rice plant, effect on crop (criteria of Test Example 1) [13] | Effect on crop grade, c: corn [14] | f: beet, effect on crop (criteria of Test Example 1) [15]
1 | CON=C(C)CC1CC(O)=C(c2c(F)cc(C)cc2OC)C1=O (stereo not drawn) [6-108] | 3 (Herbicidal ratio of 40% or higher and lower than 70%) | 5 (Herbicidal ratio of 90% or more (almost completely withered)) | 1 (Herbicidal ratio of 5% or higher and lower than 20%) | 0 (Herbicidal ratio of 5% or lower (almost no effect)) | 5 (Herbicidal ratio of 90% or more (almost completely withered)) | 0 (Herbicidal ratio of 5% or lower (almost no effect)) | 5 (Herbicidal ratio of 90% or more (almost completely withered)) | 3 (Herbicidal ratio of 40% or higher and lower than 70%) | 4 (Herbicidal ratio of 70% or higher and lower than 90%) | 5 (Herbicidal ratio of 90% or more (almost completely withered)) | 5 (Herbicidal ratio of 90% or more (almost completely withered)) | 3 (Herbicidal ratio of 40% or higher and lower than 70%) | 5 (Herbicidal ratio of 90% or more (almost completely withered)) | 1 (Herbicidal ratio of 5% or higher and lower than 20%) | 0 (Herbicidal ratio of 5% or lower (almost no effect))
2 | CON=C(C)CC1CC(OC(=O)N2CCCC2)=C(c2c(C)cc(C)cc2OC)C1=O (stereo not drawn) [6-110] | 0 (Herbicidal ratio of 5% or lower (almost no effect)) | 5 (Herbicidal ratio of 90% or more (almost completely withered)) | 1 (Herbicidal ratio of 5% or higher and lower than 20%) | 0 (Herbicidal ratio of 5% or lower (almost no effect)) | 5 (Herbicidal ratio of 90% or more (almost completely withered)) | 0 (Herbicidal ratio of 5% or lower (almost no effect)) | 0 (Herbicidal ratio of 5% or lower (almost no effect)) | 0 (Herbicidal ratio of 5% or lower (almost no effect)) | 5 (Herbicidal ratio of 90% or more (almost completely withered)) | 5 (Herbicidal ratio of 90% or more (almost completely withered)) | 5 (Herbicidal ratio of 90% or more (almost completely withered)) | 2 (Herbicidal ratio of 20% or higher and lower than 40%) | 5 (Herbicidal ratio of 90% or more (almost completely withered)) | 0 (Herbicidal ratio of 5% or lower (almost no effect)) | 0 (Herbicidal ratio of 5% or lower (almost no effect))
3 | CON=C(C)CC1CC(OC(=O)N2CCCCC2)=C(c2c(C)cc(C)cc2OC)C1=O (stereo not drawn) [6-111] | 0 (Herbicidal ratio of 5% or lower (almost no effect)) | 5 (Herbicidal ratio of 90% or more (almost completely withered)) | 3 (Herbicidal ratio of 40% or higher and lower than 70%) | 0 (Herbicidal ratio of 5% or lower (almost no effect)) | 5 (Herbicidal ratio of 90% or more (almost completely withered)) | 2 (Herbicidal ratio of 20% or higher and lower than 40%) | 0 (Herbicidal ratio of 5% or lower (almost no effect)) | 0 (Herbicidal ratio of 5% or lower (almost no effect)) | 5 (Herbicidal ratio of 90% or more (almost completely withered)) | 5 (Herbicidal ratio of 90% or more (almost completely withered)) | 5 (Herbicidal ratio of 90% or more (almost completely withered)) | 1 (Herbicidal ratio of 5% or higher and lower than 20%) | 5 (Herbicidal ratio of 90% or more (almost completely withered)) | 0 (Herbicidal ratio of 5% or lower (almost no effect)) | 0 (Herbicidal ratio of 5% or lower (almost no effect))
4 | CON=C(C)CC1CC(O)=C(c2c(C)cc(-c3ccsc3)cc2C)C1=O (stereo not drawn) [6-106] | 0 (Herbicidal ratio of 5% or lower (almost no effect)) | 5 (Herbicidal ratio of 90% or more (almost completely withered)) | 5 (Herbicidal ratio of 90% or more (almost completely withered)) | 0 (Herbicidal ratio of 5% or lower (almost no effect)) | 4 (Herbicidal ratio of 70% or higher and lower than 90%) | 4 (Herbicidal ratio of 70% or higher and lower than 90%) | 0 (Herbicidal ratio of 5% or lower (almost no effect)) | 0 (Herbicidal ratio of 5% or lower (almost no effect)) | 5 (Herbicidal ratio of 90% or more (almost completely withered)) | 5 (Herbicidal ratio of 90% or more (almost completely withered)) | 5 (Herbicidal ratio of 90% or more (almost completely withered)) | 1 (Herbicidal ratio of 5% or higher and lower than 20%) | 3 (Herbicidal ratio of 40% or higher and lower than 70%) | 0 (Herbicidal ratio of 5% or lower (almost no effect)) | 0 (Herbicidal ratio of 5% or lower (almost no effect))
5 | CON=C(C)CC1CC(OC(=O)N(C)C)=C(c2c(C)cc(C)cc2OC)C1=O (stereo not drawn) [6-109] | 0 (Herbicidal ratio of 5% or lower (almost no effect)) | 5 (Herbicidal ratio of 90% or more (almost completely withered)) | 2 (Herbicidal ratio of 20% or higher and lower than 40%) | 0 (Herbicidal ratio of 5% or lower (almost no effect)) | 5 (Herbicidal ratio of 90% or more (almost completely withered)) | 3 (Herbicidal ratio of 40% or higher and lower than 70%) | 0 (Herbicidal ratio of 5% or lower (almost no effect)) | 0 (Herbicidal ratio of 5% or lower (almost no effect)) | 5 (Herbicidal ratio of 90% or more (almost completely withered)) | 4 (Herbicidal ratio of 70% or higher and lower than 90%) | 5 (Herbicidal ratio of 90% or more (almost completely withered)) | 2 (Herbicidal ratio of 20% or higher and lower than 40%) | 5 (Herbicidal ratio of 90% or more (almost completely withered)) | 0 (Herbicidal ratio of 5% or lower (almost no effect)) | 0 (Herbicidal ratio of 5% or lower (almost no effect))
